Source: US20250114345A1, “COMPOUNDS AND COMPOSITIONS AS CBP/P300 DEGRADERS AND USES THEREOF” (Oncopia Therapeutics, Inc. d/b/a/ SK Life Science Labs, priority 2023, published 2025)

Experiments:
p300 = target: T1, p300 (Homo sapiens, UniProt Q09472); assay: P300 degradation, HiBit technology in A549 P300 HiBit cells (2 h); type: cell-based; settings: 2 hrs post treatment; for Dmax: A549, A549 P300 HiBit cells; for DC50: A549 P300 HiBit cells
T1 construct: host or cells: A549 P300 HiBit cells
Method in brief: (§1)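 Cells: A549 HiBiT-tagged lines, 0.2×10^4/well, F-12K + 10% HI-FBS, equilibrated overnight. Tx: serial dilution of cpd (10 mM DMSO stock). Readout: HiBiT lytic reagent, 10 min RT shaking, luminescence → potency, Dmax.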

CBP = target: T2, CBP (Homo sapiens, UniProt Q92793); assay: CBP degradation, HiBit technology in A549 CBP HiBit cells (24 h); type: cell-based; settings: 24 hrs post treatment
T2 construct: host or cells: A549 CBP HiBit cells
Method in brief: as §1

T2 sequence (Q92793 whole entry): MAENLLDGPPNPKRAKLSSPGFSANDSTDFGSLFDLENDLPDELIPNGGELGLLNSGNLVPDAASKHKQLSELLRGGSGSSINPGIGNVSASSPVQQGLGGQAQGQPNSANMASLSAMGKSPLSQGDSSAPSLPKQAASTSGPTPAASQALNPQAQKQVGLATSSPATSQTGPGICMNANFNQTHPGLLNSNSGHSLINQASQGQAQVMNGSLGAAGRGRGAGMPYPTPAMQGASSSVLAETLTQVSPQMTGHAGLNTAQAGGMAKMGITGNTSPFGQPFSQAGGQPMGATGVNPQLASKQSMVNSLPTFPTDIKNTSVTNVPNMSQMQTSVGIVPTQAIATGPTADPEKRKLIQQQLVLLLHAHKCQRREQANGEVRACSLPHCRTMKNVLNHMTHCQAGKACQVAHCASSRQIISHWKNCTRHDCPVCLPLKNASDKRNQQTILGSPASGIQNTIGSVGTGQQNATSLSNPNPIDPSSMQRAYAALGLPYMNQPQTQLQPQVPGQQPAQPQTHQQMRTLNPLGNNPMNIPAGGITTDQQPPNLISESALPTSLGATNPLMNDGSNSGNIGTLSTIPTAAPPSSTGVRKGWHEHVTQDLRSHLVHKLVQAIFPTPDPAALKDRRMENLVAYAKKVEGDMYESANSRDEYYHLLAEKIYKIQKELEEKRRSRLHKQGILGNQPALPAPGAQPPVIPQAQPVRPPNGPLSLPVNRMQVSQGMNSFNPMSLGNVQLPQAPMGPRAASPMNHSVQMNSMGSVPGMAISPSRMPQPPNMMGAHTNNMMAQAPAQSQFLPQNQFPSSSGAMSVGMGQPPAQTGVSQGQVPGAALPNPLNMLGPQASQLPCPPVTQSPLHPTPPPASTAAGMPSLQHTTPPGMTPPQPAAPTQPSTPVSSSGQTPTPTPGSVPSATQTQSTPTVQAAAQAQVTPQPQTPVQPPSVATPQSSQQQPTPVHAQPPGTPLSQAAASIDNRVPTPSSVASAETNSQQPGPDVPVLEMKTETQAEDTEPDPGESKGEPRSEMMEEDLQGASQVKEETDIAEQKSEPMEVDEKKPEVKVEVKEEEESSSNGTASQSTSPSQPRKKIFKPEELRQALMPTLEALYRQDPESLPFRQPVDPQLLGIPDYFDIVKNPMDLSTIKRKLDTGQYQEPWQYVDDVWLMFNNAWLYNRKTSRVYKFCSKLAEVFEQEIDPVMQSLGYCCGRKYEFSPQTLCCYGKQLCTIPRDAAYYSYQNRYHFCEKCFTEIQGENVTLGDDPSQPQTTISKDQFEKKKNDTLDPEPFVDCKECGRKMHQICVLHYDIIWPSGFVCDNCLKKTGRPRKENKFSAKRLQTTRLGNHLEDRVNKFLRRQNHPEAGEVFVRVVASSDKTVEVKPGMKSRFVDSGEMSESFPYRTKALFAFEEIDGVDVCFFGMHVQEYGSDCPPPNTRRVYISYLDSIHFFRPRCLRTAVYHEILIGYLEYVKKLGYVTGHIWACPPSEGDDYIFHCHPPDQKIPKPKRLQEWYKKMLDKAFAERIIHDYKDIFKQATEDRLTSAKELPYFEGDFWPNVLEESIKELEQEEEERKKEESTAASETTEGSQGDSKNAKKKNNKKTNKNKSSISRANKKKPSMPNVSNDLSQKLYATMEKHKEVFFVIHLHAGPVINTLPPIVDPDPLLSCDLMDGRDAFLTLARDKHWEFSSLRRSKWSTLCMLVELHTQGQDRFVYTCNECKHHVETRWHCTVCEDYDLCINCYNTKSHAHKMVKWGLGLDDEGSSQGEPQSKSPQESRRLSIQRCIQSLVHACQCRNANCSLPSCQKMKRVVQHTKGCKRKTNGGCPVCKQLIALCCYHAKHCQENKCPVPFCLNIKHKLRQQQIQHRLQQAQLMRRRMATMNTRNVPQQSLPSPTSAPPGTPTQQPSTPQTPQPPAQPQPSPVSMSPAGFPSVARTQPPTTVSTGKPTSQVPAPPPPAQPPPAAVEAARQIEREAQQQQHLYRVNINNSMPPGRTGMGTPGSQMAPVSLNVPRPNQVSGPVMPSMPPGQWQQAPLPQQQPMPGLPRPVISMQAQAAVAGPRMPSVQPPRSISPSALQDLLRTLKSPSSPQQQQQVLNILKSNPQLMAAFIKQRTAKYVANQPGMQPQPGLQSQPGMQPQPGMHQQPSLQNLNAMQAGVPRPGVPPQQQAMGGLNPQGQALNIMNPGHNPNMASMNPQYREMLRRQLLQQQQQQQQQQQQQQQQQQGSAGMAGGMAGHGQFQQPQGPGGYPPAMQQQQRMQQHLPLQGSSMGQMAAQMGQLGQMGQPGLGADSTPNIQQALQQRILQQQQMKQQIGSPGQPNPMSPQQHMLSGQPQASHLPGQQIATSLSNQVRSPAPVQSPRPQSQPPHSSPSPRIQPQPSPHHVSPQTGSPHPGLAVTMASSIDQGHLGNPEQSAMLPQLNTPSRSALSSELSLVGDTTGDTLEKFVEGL
T1 sequence (Q09472 whole entry): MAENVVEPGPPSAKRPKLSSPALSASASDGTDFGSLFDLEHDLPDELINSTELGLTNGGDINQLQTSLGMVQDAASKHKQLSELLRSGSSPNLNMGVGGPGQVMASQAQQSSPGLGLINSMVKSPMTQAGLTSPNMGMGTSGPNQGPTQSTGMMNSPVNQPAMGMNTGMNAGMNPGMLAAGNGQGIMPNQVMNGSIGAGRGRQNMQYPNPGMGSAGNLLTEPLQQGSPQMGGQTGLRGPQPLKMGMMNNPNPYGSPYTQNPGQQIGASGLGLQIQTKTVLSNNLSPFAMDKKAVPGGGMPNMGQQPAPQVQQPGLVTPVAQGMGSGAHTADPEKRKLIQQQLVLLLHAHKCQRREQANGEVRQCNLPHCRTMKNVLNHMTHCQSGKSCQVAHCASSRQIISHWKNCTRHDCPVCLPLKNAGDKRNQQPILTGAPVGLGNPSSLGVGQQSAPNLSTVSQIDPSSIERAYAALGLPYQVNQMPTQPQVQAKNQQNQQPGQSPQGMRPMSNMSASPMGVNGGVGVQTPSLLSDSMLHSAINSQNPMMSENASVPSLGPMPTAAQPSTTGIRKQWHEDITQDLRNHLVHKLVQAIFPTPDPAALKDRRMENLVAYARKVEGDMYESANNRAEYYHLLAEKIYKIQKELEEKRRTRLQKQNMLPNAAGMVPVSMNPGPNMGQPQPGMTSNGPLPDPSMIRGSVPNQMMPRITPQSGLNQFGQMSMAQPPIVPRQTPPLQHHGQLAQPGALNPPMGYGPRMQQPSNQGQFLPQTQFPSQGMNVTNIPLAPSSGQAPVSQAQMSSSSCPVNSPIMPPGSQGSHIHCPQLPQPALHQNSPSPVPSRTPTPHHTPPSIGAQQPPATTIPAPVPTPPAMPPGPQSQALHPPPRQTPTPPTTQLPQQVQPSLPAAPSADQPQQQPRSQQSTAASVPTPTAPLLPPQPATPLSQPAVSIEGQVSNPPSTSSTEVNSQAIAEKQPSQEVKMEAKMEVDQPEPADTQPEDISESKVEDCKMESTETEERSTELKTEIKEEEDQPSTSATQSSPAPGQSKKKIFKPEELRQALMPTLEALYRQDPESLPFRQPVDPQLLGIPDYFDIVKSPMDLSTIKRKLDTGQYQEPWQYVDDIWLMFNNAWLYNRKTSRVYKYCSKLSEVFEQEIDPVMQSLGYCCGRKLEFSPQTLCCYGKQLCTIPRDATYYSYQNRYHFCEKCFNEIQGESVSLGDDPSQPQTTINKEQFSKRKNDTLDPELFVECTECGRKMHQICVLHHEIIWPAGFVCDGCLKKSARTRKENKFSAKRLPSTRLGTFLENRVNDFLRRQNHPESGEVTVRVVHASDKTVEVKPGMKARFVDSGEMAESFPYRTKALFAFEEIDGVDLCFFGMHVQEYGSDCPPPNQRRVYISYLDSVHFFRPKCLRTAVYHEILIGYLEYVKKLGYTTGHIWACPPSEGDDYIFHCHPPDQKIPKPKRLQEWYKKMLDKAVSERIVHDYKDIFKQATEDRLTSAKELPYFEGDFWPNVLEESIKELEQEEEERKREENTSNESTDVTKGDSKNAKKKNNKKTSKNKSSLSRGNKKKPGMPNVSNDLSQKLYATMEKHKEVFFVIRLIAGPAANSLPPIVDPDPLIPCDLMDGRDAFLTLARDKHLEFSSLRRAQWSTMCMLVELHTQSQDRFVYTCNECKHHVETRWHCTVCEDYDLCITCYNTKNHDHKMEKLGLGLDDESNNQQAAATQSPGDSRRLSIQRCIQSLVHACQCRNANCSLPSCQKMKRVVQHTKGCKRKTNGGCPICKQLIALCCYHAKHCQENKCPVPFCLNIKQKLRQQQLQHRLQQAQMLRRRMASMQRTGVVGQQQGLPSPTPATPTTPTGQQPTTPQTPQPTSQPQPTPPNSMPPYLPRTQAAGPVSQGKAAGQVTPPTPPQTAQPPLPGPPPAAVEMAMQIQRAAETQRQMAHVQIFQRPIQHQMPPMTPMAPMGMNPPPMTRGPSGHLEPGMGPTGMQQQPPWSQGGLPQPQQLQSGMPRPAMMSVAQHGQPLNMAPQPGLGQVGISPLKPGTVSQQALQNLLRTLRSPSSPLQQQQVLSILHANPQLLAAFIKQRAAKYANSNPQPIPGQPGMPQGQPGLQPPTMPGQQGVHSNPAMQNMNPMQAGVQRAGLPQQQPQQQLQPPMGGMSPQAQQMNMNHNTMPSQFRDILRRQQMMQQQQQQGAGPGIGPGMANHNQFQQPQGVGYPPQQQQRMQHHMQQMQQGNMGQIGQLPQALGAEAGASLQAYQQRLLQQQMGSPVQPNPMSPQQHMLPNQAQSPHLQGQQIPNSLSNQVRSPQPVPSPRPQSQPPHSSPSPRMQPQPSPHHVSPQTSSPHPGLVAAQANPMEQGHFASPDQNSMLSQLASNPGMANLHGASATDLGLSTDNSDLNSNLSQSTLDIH

Row | SMILES | Dmax (p300) | DC50 (p300) | DC50 (CBP) | Dmax (CBP)
1 | Cn1c(=O)n(C)c2c(N3CCOCC3)cc(N3CCCc4nc(-c5ccc(C(=O)NCC#Cc6ccc7occ(C8CCC(=O)NC8=O)c7c6)nc5)ncc43)cc21 (centres unmarked) [Example A127, 5-(5-(1,3-dimethyl-7-morpholino-2-oxo-2,3-dihydro-1H-benzo [d]imidazol-5-yl)-5,6,7,8-tetrahydro-pyrido[3,2-d]pyrimidin-2-yl)-N-(3-(3-(2,6-dioxopiperidin-3-yl)benzofuran-5-yl)prop-2-yn-1-yl)picolinamide] | > 80% | < 1 nM | > 1000 nM | < 20%
2 | CC(C)c1cc(C2=CC(C)(C)Oc3cc(-c4ccc(C(=O)NCC#Cc5ccc6occ(C7CCC(=O)NC7=O)c6c5)nc4)ncc32)cc2c1n(C)c(=O)n2C (centres unmarked) [Example A75, N-(3-(3-(2,6-dioxopiperidin-3-yl)benzofuran-5-yl)prop-2-yn-1-yl)-5-(4-(7-isopropyl-1,3-dimethyl-2-oxo-2,3-dihydro-1H-benzo[d]imidazol-5-yl)-2,2-dimethyl-2H-pyrano[3,2-c]pyridin-7-yl)picolinamide] | > 80% | 1 to 9.9 nM | > 1000 nM | < 20%
3 | Cc1cc2c(N3CCCc4nc(-c5ccc(C(=O)NCC#Cc6ccc7occ([C@H]8CCC(=O)NC8=O)c7c6)nc5)ncc43)nc(N3CCOCC3)cc2n(C)c1=O [Example B72, (R)-5-(5-(1,3-dimethyl-7-morpholino-2-oxo-1,2-dihydro-1,6-naphthyridin-5-yl)-5,6,7,8-tetrahydropyrido[3,2-d]pyrimidin-2-yl)-N-(3-(3-(2,6-dioxopiperidin-3-yl)benzofuran-5-yl)prop-2-yn-1-yl)picolinamide] | 60 to 79% | 1 to 9.9 nM | > 1000 nM | < 20%
4 | Cc1cc2c(N3CCOc4nc(-c5ccc(C(=O)NCC#Cc6cc7c(C8CCC(=O)NC8=O)cccc7o6)nc5)ncc43)cc(C3CCOCC3)cc2n(C)c1=O (centres unmarked) [Example B96, 5-(5-(1,3-dimethyl-2-oxo-7-(tetrahydro-2H-pyran-4-yl)-1,2-dihydroquinolin-5-yl)-6,7-dihydro-5H-pyrimido[4,5-b][1,4]oxazin-2-yl)-N-(3-(4-(2,6-dioxopiperidin-3-yl)benzofuran-2-yl)prop-2-yn-1-yl)picolinamide] | > 80% | 1 to 9.9 nM | 100 to 999 nM | < 20%
5 | Cc1cc2c(N3CCCc4nc(-c5ccc(C(=O)NCC#Cc6cc7c(C8CCC(=O)NC8=O)cccc7o6)nc5)ncc43)cc(C3CCC3)nc2n(C)c1=O (centres unmarked) [Example B164, 5-(5-(2-cyclobutyl-6,8-dimethyl-7-oxo-7,8-dihydro-1,8-naphthyridin-4-yl)-5,6,7,8-tetra-hydropyrido[3,2-d]pyrimidin-2-yl)-N-(3-(4-(2,6-dioxopiperidin-3-yl)benzofuran-2-yl)prop-2-yn-1-yl)picolinamide] | > 80% | 10 to 99 nM | > 1000 nM | < 20%
6 | Cc1cc2c(N3CCCc4nc(-c5ccc(C(=O)NCC#Cc6cc7c([C@H]8CCC(=O)NC8=O)cccc7o6)nc5)ncc43)cc(C3CCOCC3)cc2n(C)c1=O [Example B38, (R)-5-(5-(1,3-dimethyl-2-oxo-7-(tetrahydro-2H-pyran-4-yl)-1,2-dihydroquinolin-5-yl)-5,6,7,8-tetrahydropyrido[3,2-d]pyrimidin-2-yl)-N-(3-(4-(2,6-dioxopiperidin-3-yl)benzofuran-2-yl)prop-2-yn-1-yl)picolinamide] | > 80% | < 1 nM | > 1000 nM | < 20%
7 | Cn1c(=O)n(C)c2c(N3CC(C)(O)C3)nc(-c3cccc4cc(-c5ccc(C(=O)NCC#Cc6ccc7occ(C8CCC(=O)NC8=O)c7c6)nc5)ncc34)cc21 (centres unmarked) [Example A145, N-(3-(3-(2,6-dioxo-piperidin-3-yl)benzofuran-5-yl)prop-2-yn-1-yl)-5-(8-(4-(3-hydroxy-3-methylazetidin-1-yl)-1,3-dimethyl-2-oxo-2,3-dihydro-1H-imidazo[4,5-c]pyridin-6-yl)isoquinolin-3-yl)picolinamide] | > 80% | < 1 nM | > 1000 nM | < 20%
8 | Cc1cc(-c2cc3c(cn2)N(c2cc(C(C)C)c4c(c2)n(C)c(=O)n4C)CCC3)cnc1C(=O)NCC#Cc1ccn2ncc(C3CCC(=O)NC3=O)c2c1 (centres unmarked) [Example A238, N-(3-(3-(2,6-dioxo-piperidin-3-yl)pyrazolo[1,5-a]pyridin-5-yl)prop-2-yn-1-yl)-5-(1-(7-isopropyl-1,3-dimethyl-2-oxo-2,3-dihydro-1H-benzo[d]imidazol-5-yl)-1,2,3,4-tetrahydro-1,7-naphthyridin-6-yl)-3-methylpicolinamide] | > 80% | < 1 nM | 1 to 9.9 nM | 40 to 59%
9 | Cc1cc2c(-c3cn(C)c(=O)c4cc(-c5ccc(C(=O)NCC#Cc6cc7c(C8CCC(=O)NC8=O)cccc7o6)nc5)ncc34)cc(C3CCOCC3)nc2n(C)c1=O (centres unmarked) [Example B160, 5-(8-(6,8-dimethyl-7-oxo-2-(tetrahydro-2H-pyran-4-yl)-7,8-dihydro-1,8-naphthyridin-4-yl)-6-methyl-5-oxo-5,6-dihydro-2,6-naphthyridin-3-yl)-N-(3-(4-(2,6-dioxopiperidin-3-yl)benzofuran-2-yl)prop-2-yn-1-yl)picolinamide] | > 80% | 1 to 9.9 nM | > 1000 nM | < 20%
10 | Cc1cc2c(N3CCCc4nc(-c5ccc(C(=O)NCC#Cc6ccc7occ(C8CCC(=O)NC8=O)c7c6)nc5)ncc43)cc(C3CCOCC3)nc2n(C)c1=O (centres unmarked) [Example B76, 5-(5-(6,8-dimethyl-7-oxo-2-(tetrahydro-2H-pyran-4-yl)-7,8-dihydro-1,8-naphthyridin-4-yl)-5,6,7,8-tetrahydropyrido[3,2-d]pyrimidin-2-yl)-N-(3-(3-(2,6-dioxopiperidin-3-yl)benzofuran-5-yl)prop-2-yn-1-yl)picolinamide] | > 80% | 1 to 9.9 nM | 100 to 999 nM | < 20%
11 | Cn1c(=O)n(C)c2c(N3CCC(C)(O)CC3)cc(-c3cccc4cc(-c5ccc(C(=O)NCC#Cc6cccc(NC7CCC(=O)NC7=O)c6)nc5)ncc34)cc21 (centres unmarked) [Example A271, N-(3-(3-((2,6-dioxopiperidin-3-yl)amino)phenyl)prop-2-yn-1-yl)-5-(8-(7-(4-hydroxy-4-methylpiperidin-1-yl)-1,3-dimethyl-2-oxo-2,3-dihydro-1H-benzo[d]imidazol-5-yl)isoquinolin-3-yl)picolinamide] | > 80% | < 1 nM | 1 to 9.9 nM | 60 to 79%
12 | Cn1c(=O)n(C)c2c(N3CC4CC(C3)O4)nc(-c3cccc4cc(-c5ccc(C(=O)NCC#Cc6cc7c(C8CCC(=O)NC8=O)cccc7o6)nc5)ncc34)cc21 (centres unmarked) [Example A210, 5-(8-(4-(6-oxa-3-azabicyclo[3.1.1]heptan-3-yl)-1,3-dimethyl-2-oxo-2,3-dihydro-1H-imidazo[4,5-c]pyridin-6-yl)isoquinolin-3-yl)-N-(3-(4-(2,6-dioxopiperidin-3-yl)benzofuran-2-yl)prop-2-yn-1-yl)picolinamide] | > 80% | < 1 nM | > 1000 nM | < 20%
13 | Cn1c(=O)n(C)c2cc(N3CCOc4nc(-c5ccc(C(=O)NCC#Cc6cc7cccc(C8CCC(=O)NC8=O)c7o6)nc5)ncc43)ccc21 (centres unmarked) [Example A247, 5-(5-(1,3-dimethyl-2-oxo-2,3-dihydro-1H-benzo[d]imidazol-5-yl)-6,7-dihydro-5H-pyrimido[4,5-b][1,4]oxazin-2-yl)-N-(3-(7-(2,6-dioxopiperidin-3-yl)benzofuran-2-yl)prop-2-yn-1-yl) picolinamide] | 20 to 39% | 10 to 99 nM | > 1000 nM | < 20%
14 | Cc1cc2c(N3CCCc4nc(-c5ccc(C(=O)NCC#Cc6cc7c(C8CCC(=O)NC8=O)cccc7o6)nc5)ncc43)nc(N3CCOCC3)cc2n(C)c1=O (centres unmarked) [Example B28, 5-(5-(1,3-dimethyl-7-morpholino-2-oxo-1,2-dihydro-1,6-naphthyridin-5-yl)-5,6,7,8-tetrahydropyrido[3,2-d]pyrimidin-2-yl)-N-(3-(4-(2,6-dioxopiperidin-3-yl)benzofuran-2-yl)prop-2-yn-1-yl)picolinamide] | > 80% | 1 to 9.9 nM | 100 to 999 nM | < 20%
15 | CC(C)c1cc(-c2cccc3cc(-c4ccc(C(=O)NCC#Cc5cc(OC6CCC(=O)NC6=O)nn5C)nc4)ncc23)cc2c1n(C)c(=O)n2C (centres unmarked) [Example A29, N-(3-(3-((2,6-Dioxopiperidin-3-yl)oxy)-1-methyl-1H-pyrazol-5-yl)prop-2-yn-1-yl)-5-(8-(7-isopropyl-1,3-dimethyl-2-oxo-2,3-dihydro-1H-benzo[d]imidazol-5-yl)isoquinolin-3-yl)picolinamide] | > 80% | 1 to 9.9 nM | > 1000 nM | < 20%
16 | Cc1cc(-c2cc3cccc(-c4ccc5c(c4)n(C)c(=O)n5C)c3cn2)cnc1C(=O)NCC#Cc1cc2c(C3CCC(=O)NC3=O)cccc2o1 (centres unmarked) [Example A180, 5-(8-(1,3-dimethyl-2-oxo-2,3-dihydro-1H-benzo[d]imidazol-5-yl)isoquinolin-3-yl)-N-(3-(4-(2,6-dioxo-piperidin-3-yl)benzofuran-2-yl)prop-2-yn-1-yl)-3-methylpicolinamide] | > 80% | 1 to 9.9 nM | > 1000 nM | < 20%
17 | Cc1cc(-c2ncc(N(C)c3cc(C(C)C)c4c(c3)n(C)c(=O)n4C)cn2)cnc1C(=O)NCC#Cc1cccc(NC2CCC(=O)NC2=O)c1 (centres unmarked) [Example A51, N-(3-(3-((2,6-dioxopiperidin-3-yl)amino)phenyl)prop-2-yn-1-yl)-5-(5-((7-isopropyl-1,3-dimethyl-2-oxo-2,3-dihydro-1H-benzo [d]imidazol-5-yl)(methyl)amino)pyrimidin-2-yl)-3-methylpicolinamide] | > 80% | 1 to 9.9 nM | > 1000 nM | < 20%
